Data published in ChEMBL document CHEMBL5463729, “Data for DCP probe BAY 1753011” (2023).

Assays:
Conditions in all cases: Compound concentration 10.0 uM
[1] = biological target: Beta-3 adrenergic receptor (Homo sapiens) (UniProt P13945)
[2] = biological target: T1, Muscarinic acetylcholine receptor M4 (Homo sapiens) (UniProt P08173)
T1 sequence (whole entry): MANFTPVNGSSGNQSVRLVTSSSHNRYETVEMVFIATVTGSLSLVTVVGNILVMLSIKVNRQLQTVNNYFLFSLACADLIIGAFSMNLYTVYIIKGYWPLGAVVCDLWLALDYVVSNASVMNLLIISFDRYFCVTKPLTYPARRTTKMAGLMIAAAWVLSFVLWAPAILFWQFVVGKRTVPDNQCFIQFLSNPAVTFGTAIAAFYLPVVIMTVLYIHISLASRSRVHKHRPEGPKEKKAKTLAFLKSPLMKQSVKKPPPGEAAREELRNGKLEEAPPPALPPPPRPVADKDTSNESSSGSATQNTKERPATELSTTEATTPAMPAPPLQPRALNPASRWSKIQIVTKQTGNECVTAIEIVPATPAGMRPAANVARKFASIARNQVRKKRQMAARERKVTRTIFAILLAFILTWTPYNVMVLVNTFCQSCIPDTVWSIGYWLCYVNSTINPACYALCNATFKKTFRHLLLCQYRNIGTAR

[3] = biological target: T2, Alpha-2A adrenergic receptor (Homo sapiens) (UniProt P08913)
T2 sequence (whole entry): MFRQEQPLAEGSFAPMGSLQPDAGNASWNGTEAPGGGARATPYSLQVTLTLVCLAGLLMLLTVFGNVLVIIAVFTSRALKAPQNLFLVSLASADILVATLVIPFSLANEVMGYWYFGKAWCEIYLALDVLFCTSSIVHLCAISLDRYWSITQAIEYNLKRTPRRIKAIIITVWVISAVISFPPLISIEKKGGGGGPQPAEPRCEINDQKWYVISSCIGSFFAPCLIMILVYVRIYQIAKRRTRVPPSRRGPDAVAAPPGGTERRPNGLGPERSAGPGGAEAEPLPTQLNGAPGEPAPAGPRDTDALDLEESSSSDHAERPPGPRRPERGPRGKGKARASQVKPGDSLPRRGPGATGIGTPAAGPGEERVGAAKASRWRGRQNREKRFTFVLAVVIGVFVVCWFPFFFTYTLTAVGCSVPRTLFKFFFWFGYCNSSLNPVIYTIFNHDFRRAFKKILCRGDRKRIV

[4] = species on record: Rattus norvegicus
[5] = biological target: Serine/threonine-protein kinase PAK 1 (Homo sapiens) (UniProt Q13153); test: Inhibition of PAK1(h) at 10.0 µM in the Eurofins Kinase panel
Serine/threonine-protein kinase PAK 1 (Homo sapiens), sequence (Q13153 whole entry): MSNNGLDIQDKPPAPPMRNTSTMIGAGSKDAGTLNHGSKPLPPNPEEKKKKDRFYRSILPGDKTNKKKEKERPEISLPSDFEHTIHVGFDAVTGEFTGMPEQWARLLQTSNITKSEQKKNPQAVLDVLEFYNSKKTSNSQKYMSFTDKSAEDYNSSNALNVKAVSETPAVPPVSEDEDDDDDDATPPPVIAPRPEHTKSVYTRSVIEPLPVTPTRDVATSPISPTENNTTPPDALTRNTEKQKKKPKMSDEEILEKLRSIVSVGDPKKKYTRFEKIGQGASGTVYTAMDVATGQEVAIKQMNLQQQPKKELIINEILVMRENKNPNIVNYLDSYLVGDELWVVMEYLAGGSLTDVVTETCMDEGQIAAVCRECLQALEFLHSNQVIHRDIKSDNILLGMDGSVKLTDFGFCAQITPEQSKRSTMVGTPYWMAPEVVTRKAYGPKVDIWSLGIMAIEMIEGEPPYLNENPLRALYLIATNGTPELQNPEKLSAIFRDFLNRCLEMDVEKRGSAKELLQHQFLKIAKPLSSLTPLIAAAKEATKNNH

[6] = biological target: Ephrin type-A receptor 7 (Homo sapiens) (UniProt Q15375); test: Inhibition of EphA7(h) at 10.0 µM in the Eurofins Kinase panel
[7] = biological target: Receptor tyrosine-protein kinase erbB-2 (Homo sapiens) (UniProt P04626); test: Inhibition of ErbB2(h) at 10.0 µM in the Eurofins Kinase panel
Receptor tyrosine-protein kinase erbB-2 (Homo sapiens), sequence (P04626 whole entry): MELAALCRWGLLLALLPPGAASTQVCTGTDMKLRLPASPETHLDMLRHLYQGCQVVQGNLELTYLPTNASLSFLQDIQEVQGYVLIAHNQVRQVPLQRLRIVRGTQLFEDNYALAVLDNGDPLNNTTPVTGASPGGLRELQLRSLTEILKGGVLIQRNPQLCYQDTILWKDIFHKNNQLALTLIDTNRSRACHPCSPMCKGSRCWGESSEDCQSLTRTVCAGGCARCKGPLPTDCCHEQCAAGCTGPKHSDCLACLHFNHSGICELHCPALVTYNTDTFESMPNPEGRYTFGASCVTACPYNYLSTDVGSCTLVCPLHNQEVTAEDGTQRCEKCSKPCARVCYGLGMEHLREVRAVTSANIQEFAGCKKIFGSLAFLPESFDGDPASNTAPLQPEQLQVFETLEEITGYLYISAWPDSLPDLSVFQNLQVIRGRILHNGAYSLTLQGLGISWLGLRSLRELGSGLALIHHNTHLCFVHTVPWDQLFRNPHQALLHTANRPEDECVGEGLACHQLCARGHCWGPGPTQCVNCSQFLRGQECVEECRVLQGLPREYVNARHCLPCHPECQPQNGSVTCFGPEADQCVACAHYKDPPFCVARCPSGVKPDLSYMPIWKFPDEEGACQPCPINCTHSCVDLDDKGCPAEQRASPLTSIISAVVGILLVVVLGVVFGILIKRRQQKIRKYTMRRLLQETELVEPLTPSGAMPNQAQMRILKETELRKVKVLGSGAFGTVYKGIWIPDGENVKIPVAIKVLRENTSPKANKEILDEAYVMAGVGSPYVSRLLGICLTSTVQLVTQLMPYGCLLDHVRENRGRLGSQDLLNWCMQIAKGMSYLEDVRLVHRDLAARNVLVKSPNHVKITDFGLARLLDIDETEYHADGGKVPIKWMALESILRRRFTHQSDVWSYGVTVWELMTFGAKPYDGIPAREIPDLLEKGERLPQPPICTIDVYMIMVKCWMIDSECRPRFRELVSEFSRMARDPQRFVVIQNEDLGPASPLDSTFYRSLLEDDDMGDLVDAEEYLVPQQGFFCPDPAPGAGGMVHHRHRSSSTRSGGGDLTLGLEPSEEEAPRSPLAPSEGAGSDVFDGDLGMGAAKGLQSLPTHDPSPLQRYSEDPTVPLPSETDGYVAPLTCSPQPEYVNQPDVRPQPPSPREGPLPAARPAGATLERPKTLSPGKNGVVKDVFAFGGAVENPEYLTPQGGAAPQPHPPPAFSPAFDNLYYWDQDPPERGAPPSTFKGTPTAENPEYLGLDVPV

[8] = biological target: Dual specificity tyrosine-phosphorylation-regulated kinase 3 (Homo sapiens) (UniProt O43781); test: Inhibition of DYRK3(h) at 10.0 µM in the Eurofins Kinase panel
[9] = biological target: 5-hydroxytryptamine receptor 2B (Homo sapiens) (UniProt P41595)
[10] = biological target: Serine/threonine-protein kinase PAK 6 (Homo sapiens) (UniProt Q9NQU5); test: Inhibition of PAK6(h) at 10.0 µM in the Eurofins Kinase panel
Serine/threonine-protein kinase PAK 6 (Homo sapiens), sequence (Q9NQU5 whole entry, looked up): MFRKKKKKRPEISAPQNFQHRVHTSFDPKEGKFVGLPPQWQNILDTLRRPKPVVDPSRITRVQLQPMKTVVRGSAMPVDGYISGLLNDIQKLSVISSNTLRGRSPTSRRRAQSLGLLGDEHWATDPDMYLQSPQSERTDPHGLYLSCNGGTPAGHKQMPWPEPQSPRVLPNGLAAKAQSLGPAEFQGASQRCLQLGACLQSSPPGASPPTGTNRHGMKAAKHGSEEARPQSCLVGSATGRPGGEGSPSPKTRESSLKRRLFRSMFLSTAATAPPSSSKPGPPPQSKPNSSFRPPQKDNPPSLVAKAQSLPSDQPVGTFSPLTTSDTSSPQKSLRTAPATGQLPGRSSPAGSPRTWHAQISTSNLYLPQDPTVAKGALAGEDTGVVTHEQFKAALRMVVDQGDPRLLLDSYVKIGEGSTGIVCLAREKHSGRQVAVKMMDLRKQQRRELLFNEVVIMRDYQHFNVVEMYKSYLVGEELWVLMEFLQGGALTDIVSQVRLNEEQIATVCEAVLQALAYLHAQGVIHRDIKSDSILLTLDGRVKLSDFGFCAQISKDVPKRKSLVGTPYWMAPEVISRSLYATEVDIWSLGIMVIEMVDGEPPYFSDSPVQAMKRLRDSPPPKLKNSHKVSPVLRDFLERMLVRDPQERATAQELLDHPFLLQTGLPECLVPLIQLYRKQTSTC

[11] = biological target: Protein kinase C beta type (Homo sapiens) (UniProt P05771); test: Inhibition of PKCbetaI(h) at 10.0 µM in the Eurofins Kinase panel
Protein kinase C beta type (Homo sapiens), sequence (P05771 2-671 limits assumed): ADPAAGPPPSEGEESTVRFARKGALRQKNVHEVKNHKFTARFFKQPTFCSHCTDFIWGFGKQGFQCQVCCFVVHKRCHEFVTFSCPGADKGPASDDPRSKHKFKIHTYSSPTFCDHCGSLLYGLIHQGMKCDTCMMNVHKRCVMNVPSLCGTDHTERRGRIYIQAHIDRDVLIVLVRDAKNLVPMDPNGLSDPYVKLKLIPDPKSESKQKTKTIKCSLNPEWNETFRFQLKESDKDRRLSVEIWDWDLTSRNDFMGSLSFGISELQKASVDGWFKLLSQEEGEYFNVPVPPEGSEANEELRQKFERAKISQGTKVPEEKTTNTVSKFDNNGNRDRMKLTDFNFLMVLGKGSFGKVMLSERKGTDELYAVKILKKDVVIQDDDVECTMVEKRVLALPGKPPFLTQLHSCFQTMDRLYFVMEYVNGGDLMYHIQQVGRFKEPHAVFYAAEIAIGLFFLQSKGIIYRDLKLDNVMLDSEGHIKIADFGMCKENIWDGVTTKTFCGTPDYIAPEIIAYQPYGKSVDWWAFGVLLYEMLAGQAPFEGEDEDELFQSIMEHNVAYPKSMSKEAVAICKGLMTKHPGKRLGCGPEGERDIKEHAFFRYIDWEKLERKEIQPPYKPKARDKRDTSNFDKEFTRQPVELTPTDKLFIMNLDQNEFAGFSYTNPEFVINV

[12] = biological target: Epidermal growth factor receptor (Homo sapiens) (UniProt P00533); test: Inhibition of EGFR(h) at 10.0 µM in the Eurofins Kinase panel
Epidermal growth factor receptor (Homo sapiens), sequence (P00533 whole entry): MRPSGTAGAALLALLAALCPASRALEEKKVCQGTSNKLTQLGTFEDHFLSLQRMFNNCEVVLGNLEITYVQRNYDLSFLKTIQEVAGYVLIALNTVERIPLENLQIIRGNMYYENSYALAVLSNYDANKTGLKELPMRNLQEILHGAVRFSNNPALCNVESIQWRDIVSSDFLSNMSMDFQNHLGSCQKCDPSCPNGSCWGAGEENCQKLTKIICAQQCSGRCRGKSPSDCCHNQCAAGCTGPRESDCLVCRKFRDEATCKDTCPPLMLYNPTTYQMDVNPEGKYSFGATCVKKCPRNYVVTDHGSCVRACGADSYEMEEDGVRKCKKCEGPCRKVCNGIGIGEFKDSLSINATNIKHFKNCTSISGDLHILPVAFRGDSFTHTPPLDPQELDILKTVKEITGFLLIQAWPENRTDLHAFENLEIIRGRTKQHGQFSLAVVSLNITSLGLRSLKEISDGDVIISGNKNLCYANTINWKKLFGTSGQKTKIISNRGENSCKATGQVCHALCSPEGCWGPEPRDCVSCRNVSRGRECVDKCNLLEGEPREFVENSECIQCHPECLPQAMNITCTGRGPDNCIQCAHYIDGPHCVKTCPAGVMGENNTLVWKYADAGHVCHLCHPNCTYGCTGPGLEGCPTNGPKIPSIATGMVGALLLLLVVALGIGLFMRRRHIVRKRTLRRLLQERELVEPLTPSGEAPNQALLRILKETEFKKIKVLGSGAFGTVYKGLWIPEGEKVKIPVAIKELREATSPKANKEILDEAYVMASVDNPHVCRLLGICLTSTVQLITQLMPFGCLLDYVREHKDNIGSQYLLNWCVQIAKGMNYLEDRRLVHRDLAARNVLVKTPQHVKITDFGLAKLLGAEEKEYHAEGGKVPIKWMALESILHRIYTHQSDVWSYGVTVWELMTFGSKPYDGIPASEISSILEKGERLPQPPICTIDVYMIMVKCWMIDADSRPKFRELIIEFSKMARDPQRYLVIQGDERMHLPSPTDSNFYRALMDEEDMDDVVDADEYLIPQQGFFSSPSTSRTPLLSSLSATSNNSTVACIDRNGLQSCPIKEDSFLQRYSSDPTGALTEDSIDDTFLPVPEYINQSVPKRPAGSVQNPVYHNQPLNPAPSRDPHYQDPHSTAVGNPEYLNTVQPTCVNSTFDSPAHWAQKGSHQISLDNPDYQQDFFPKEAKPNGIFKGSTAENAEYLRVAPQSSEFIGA

[13] = biological target: Adenosine receptor A1 (Homo sapiens) (UniProt P30542)
[14] = biological target: Serine/threonine-protein kinase TAO2 (Homo sapiens) (UniProt Q9UL54); test: Inhibition of TAO2(h) at 10.0 µM in the Eurofins Kinase panel
[15] = biological target: T3, 5-hydroxytryptamine receptor 3A (Homo sapiens) (UniProt P46098)
T3 sequence (whole entry): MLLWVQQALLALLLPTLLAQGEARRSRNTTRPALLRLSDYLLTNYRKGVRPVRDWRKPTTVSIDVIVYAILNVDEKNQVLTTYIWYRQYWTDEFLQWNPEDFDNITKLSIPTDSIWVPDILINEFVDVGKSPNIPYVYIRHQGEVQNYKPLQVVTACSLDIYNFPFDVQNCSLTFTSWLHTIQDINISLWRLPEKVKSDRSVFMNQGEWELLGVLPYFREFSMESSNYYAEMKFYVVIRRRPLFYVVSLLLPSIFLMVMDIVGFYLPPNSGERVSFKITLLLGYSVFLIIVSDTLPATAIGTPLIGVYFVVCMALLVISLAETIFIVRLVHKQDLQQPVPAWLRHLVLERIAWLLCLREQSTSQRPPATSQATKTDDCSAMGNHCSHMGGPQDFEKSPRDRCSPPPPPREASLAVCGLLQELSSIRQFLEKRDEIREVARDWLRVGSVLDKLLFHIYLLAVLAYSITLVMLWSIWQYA

[16] = biological target: Dual specificity tyrosine-phosphorylation-regulated kinase 1B (Homo sapiens) (UniProt Q9Y463); test: Inhibition of DYRK1B(h) at 10.0 µM in the Eurofins Kinase panel
[17] = biological target: Phosphorylase b kinase gamma catalytic chain, testis/liver isoform (Homo sapiens) (UniProt P15735); test: Inhibition of PhKgamma2(h) at 10.0 µM in the Eurofins Kinase panel
[18] = biological target: GABA-A receptor; anion channel (Rattus norvegicus) (UniProt O09028+P15431+P18506+P18508+P19969+P20236+P23574+P23576+P28471+P28473+P30191+P62813+P63079+P63138+Q91ZM7+Q9ES14)
[19] = biological target: Phosphatidylinositol 4-phosphate 5-kinase type-1 alpha (Homo sapiens) (UniProt Q99755); test: Inhibition of PIP5K1a(h) at 10.0 µM in the Eurofins Kinase panel
[20] = biological target: Serine/threonine-protein kinase 26 (Homo sapiens) (UniProt Q9P289); test: Inhibition of MST4(h) at 10.0 µM in the Eurofins Kinase panel
Serine/threonine-protein kinase 26 (Homo sapiens), sequence (Q9P289 2-416 limits assumed): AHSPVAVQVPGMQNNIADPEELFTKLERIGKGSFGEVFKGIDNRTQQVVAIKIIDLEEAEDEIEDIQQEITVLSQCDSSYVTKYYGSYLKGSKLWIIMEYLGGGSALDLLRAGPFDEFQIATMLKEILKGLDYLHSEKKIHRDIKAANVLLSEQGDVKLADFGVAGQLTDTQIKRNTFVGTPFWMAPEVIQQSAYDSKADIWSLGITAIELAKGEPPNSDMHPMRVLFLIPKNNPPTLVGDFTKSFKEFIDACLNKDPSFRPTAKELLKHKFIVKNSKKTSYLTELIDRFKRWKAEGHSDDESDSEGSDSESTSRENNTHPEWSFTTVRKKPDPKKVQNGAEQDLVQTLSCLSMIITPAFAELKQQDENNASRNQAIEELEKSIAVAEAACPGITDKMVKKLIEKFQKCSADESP

[21] = biological target: Cyclin-dependent kinase-like 3 (Homo sapiens) (UniProt Q8IVW4); test: Inhibition of CDKL3(h) at 10.0 µM in the Eurofins Kinase panel
[22] = biological target: Myosin light chain kinase 2, skeletal/cardiac muscle (Homo sapiens) (UniProt Q9H1R3); test: Inhibition of MYLK2(h) at 10.0 µM in the Eurofins Kinase panel

SMILES	inhibition [1]	inhibition [2]	inhibition [3]	inhibition [4]	inhibition [5]	inhibition [6]	inhibition [7]	inhibition [8]	inhibition [9]	inhibition [10]	inhibition [11]	inhibition [12]	inhibition [13]	inhibition [14]	inhibition [15]	inhibition [16]	inhibition [17]	inhibition [18]	inhibition [19]	inhibition [20]	also measured
O=c1n(Cc2cncn2-c2cccc(Cl)c2)nc(-c2ccc(Cl)cc2)n1C[C@H](O)C(F)(F)F	6%	0%	5%	9%	5.16%	3.37%	-4.27%	-6.33%	12%	-5.8%	1%	-4.73%	8%	-6.37%	-2.44%	15.4%	-3.49%	12%	-4.61%	-4.66%	inhibition [21]: -5.87%; inhibition [22]: 3.49%
C[C@H](O)c1nc(Cn2nc(-c3ccc(Cl)cc3)n(C[C@H](O)C(F)(F)F)c2=O)nn1-c1cccc(Cl)c1 [PECAVAPTAN]	-10%	7%	3%	8%	5.15%	4.11%	-6.43%	-1.79%	52%	-4.81%	2.79%	-5.82%	26%	-4.1%	-4.35%	15.8%	0.74%	30%	-9.11%	-2.72%	inhibition [21]: 0.32%; inhibition [22]: 3.01%
